# Reference: ChEMBL document CHEMBL1201862, “PubChem BioAssay data set” (2004)
#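 Where inhibition never reached the appropriate level, the endpoint shown equals the highest concentration tested. Otherwise, values were interpolated linearly from a five-concentration, 48-hour dose response in 96-well plates. Here, GI50 denotes the concentration required for 50% inhibition of growth.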 The source made the active and inactive calls. Rule as the data show it: active = GI50 up to about 1.1 µM and inactive = higher.
# What was measured:
# Assay in all cases: growth of human tumour cells (NCI), 48 h
# SF-539 = tested on: SF-539
# SR = tested on: SR
# K562 = tested on: K562
# CAKI-1 = tested on: CAKI-1
# OVCAR-5 = tested on: OVCAR-5
# RXF 393 = tested on: RXF 393
# RPMI-8226 = tested on: RPMI-8226
# CCRF-CEM = tested on: CCRF-CEM
# OVCAR-8 = tested on: OVCAR-8
# IGROV-1 = tested on: IGROV-1
# UACC-257 = tested on: UACC-257
# HT-29 = tested on: HT-29
# OVCAR-4 = tested on: OVCAR-4
# SNB-19 = tested on: SNB-19
# A549 = tested on: A549
# SK-OV-3 = tested on: SK-OV-3
# SK-MEL-28 = tested on: SK-MEL-28
# MDA-N = tested on: MDA-N
# LOX IMVI = tested on: LOX IMVI
# T47D = tested on: T47D
Compound,GI50 (SF-539),GI50 (SR),GI50 (K562),GI50 (CAKI-1),GI50 (OVCAR-5),GI50 (RXF 393),GI50 (RPMI-8226),GI50 (CCRF-CEM),GI50 (OVCAR-8),GI50 (IGROV-1),GI50 (UACC-257),GI50 (HT-29),GI50 (OVCAR-4),GI50 (SNB-19),GI50 (A549),GI50 (SK-OV-3),GI50 (SK-MEL-28),GI50 (MDA-N),GI50 (LOX IMVI),GI50 (T47D)
COc1cc(/C=C(\C#N)c2ccccn2)cc(Br)c1O,31.3 µM (inactive),22.7 µM (inactive),4.48 µM (inactive),48.5 µM (inactive),> 100 µM (inactive),46.2 µM (inactive),40.9 µM (inactive),31.3 µM (inactive),65.3 µM (inactive),54.7 µM (inactive),48.8 µM (inactive),40.1 µM (inactive),> 100 µM (inactive),39 µM (inactive),58.6 µM (inactive),55.1 µM (inactive),26.8 µM (inactive),> 100 µM (inactive),,
Clc1cc(N/N=C(/c2ccccc2)c2ncccn2)ncn1,21.9 µM (inactive),30.2 µM (inactive),9.1 µM (inactive),7.96 µM (inactive),85.5 µM (inactive),19.8 µM (inactive),16.5 µM (inactive),4.53 µM (inactive),16.5 µM (inactive),17.5 µM (inactive),20.9 µM (inactive),2.58 µM (inactive),22.1 µM (inactive),60.7 µM (inactive),26 µM (inactive),19.1 µM (inactive),36.9 µM (inactive),62.8 µM (inactive),,
CCc1ccc2oc(=O)ccc2c1,> 100 µM (inactive),> 100 µM (inactive),> 100 µM (inactive),> 100 µM (inactive),> 100 µM (inactive),> 100 µM (inactive),91 µM (inactive),> 100 µM (inactive),> 100 µM (inactive),> 100 µM (inactive),> 100 µM (inactive),> 100 µM (inactive),> 100 µM (inactive),> 100 µM (inactive),> 100 µM (inactive),,> 100 µM (inactive),> 100 µM (inactive),> 100 µM (inactive),
Cc1ccc(C(=O)/C=C(O)/C(O)=C/C(=O)c2ccc(C)cc2C)c(C)c1,1.85 µM (inactive),2.33 µM (inactive),2.96 µM (inactive),2.07 µM (inactive),2.06 µM (inactive),2.02 µM (inactive),2.01 µM (inactive),0.175 µM (active),2.86 µM (inactive),1.98 µM (inactive),1.71 µM (inactive),2.48 µM (inactive),2.7 µM (inactive),2.49 µM (inactive),2.48 µM (inactive),1.94 µM (inactive),1.86 µM (inactive),,2.16 µM (inactive),2.05 µM (inactive)
CC(C)=C1CCC(CN2CCOCC2)C1=O (stereo not given),17.4 µM (inactive),3.57 µM (inactive),1.72 µM (inactive),0.348 µM (active),18.2 µM (inactive),2.07 µM (inactive),0.953 µM (active),2.49 µM (inactive),7.55 µM (inactive),20.3 µM (inactive),16.2 µM (inactive),8.65 µM (inactive),8.18 µM (inactive),60.5 µM (inactive),20.4 µM (inactive),> 100 µM (inactive),14.9 µM (inactive),19.1 µM (inactive),19.9 µM (inactive),
Cn1ccnc1S/C(=C\C=C(C#N)C#N)c1ccc(Cl)cc1,1.21 µM (inactive),0.143 µM (active),0.252 µM (active),1.69 µM (inactive),2.31 µM (inactive),1.84 µM (inactive),,0.126 µM (active),1.12 µM (active),2.69 µM (inactive),2.1 µM (inactive),1.67 µM (inactive),4.09 µM (inactive),3.48 µM (inactive),6.27 µM (inactive),8.07 µM (inactive),4.06 µM (inactive),,,4.42 µM (inactive)
CC[N+](C)(CC)CCNC(=O)C(O)(c1ccccc1)c1ccccc1,> 100 µM (inactive),> 100 µM (inactive),> 100 µM (inactive),> 100 µM (inactive),> 100 µM (inactive),> 100 µM (inactive),> 100 µM (inactive),> 100 µM (inactive),> 100 µM (inactive),> 100 µM (inactive),> 100 µM (inactive),> 100 µM (inactive),> 100 µM (inactive),> 100 µM (inactive),> 100 µM (inactive),> 100 µM (inactive),> 100 µM (inactive),> 100 µM (inactive),0.2 µM (active),
CCCCn1c(C)c(C)c2c1NN=C(C#N)S2(=O)=O,> 100 µM (inactive),75 µM (inactive),> 100 µM (inactive),,> 100 µM (inactive),,> 100 µM (inactive),,> 100 µM (inactive),> 100 µM (inactive),> 100 µM (inactive),> 100 µM (inactive),> 100 µM (inactive),> 100 µM (inactive),> 100 µM (inactive),> 100 µM (inactive),> 100 µM (inactive),,> 100 µM (inactive),> 100 µM (inactive)
N#Cc1c(-c2ccc(Cl)cc2)c(C#N)c(=O)n(NS(=O)(=O)c2ccccc2)c1S,18.3 µM (inactive),17 µM (inactive),27.9 µM (inactive),26.2 µM (inactive),54.7 µM (inactive),35.8 µM (inactive),23.9 µM (inactive),5.79 µM (inactive),19.9 µM (inactive),21.6 µM (inactive),46.7 µM (inactive),,56.6 µM (inactive),,29.4 µM (inactive),87.5 µM (inactive),,25.9 µM (inactive),18 µM (inactive),
COc1ccc(NC(=O)/C(=N\NC(=O)C[n+]2ccccc2)c2c(O)c3ccc(O)cc3oc2=O)c([N+](=O)[O-])c1,> 100 µM (inactive),,> 100 µM (inactive),> 100 µM (inactive),> 100 µM (inactive),,> 100 µM (inactive),> 100 µM (inactive),> 100 µM (inactive),> 100 µM (inactive),> 100 µM (inactive),> 100 µM (inactive),> 100 µM (inactive),> 100 µM (inactive),> 100 µM (inactive),> 100 µM (inactive),> 100 µM (inactive),> 100 µM (inactive),> 100 µM (inactive),> 100 µM (inactive)
O=C1Nc2ccccc2C(=O)/C1=C/NC(=S)NCc1ccccc1,> 100 µM (inactive),,,> 100 µM (inactive),> 100 µM (inactive),,,,> 100 µM (inactive),> 100 µM (inactive),> 100 µM (inactive),> 100 µM (inactive),,> 100 µM (inactive),> 100 µM (inactive),> 100 µM (inactive),> 100 µM (inactive),> 100 µM (inactive),> 100 µM (inactive),> 100 µM (inactive)
COc1ccc(C(=O)c2sc(Nc3ccccc3)nc2N)cc1,14.3 µM (inactive),0.778 µM (active),2.25 µM (inactive),,> 100 µM (inactive),13.4 µM (inactive),3.72 µM (inactive),1.17 µM (inactive),29 µM (inactive),14.3 µM (inactive),> 100 µM (inactive),> 100 µM (inactive),10.7 µM (inactive),22.7 µM (inactive),24.2 µM (inactive),26.9 µM (inactive),> 100 µM (inactive),,> 100 µM (inactive),> 100 µM (inactive)
